Each structure is given as a SMILES string.

For orientation: inhibition means the drop in the measured response relative to a control, in per cent. A word on the EC50: it is the midpoint of the concentration-response curve.

The target in one test is T1, human SIRT5 (Homo sapiens, UniProt Q9NXA8).
T1 construct: purchased Reaction Biology Corporation (Malvern, USA), contract assay
T1 sequence (Q9NXA8 37-310): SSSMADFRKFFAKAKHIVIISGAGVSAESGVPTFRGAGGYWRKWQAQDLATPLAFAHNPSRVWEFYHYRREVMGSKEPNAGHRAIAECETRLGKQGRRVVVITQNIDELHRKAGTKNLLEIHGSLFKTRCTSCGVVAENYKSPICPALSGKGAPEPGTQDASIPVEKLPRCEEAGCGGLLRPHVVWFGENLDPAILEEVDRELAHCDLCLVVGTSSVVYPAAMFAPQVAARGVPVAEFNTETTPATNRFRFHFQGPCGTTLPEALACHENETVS
In words: Fluorescence-based sirtuin subtype selectivity assay, SIRT5, single dose 50 μM. To be noted: 50 μM compound; mean, n = 2. The class given is biochemical. The protocol:
(§1) IC50 values against SIRT2 are given as mean with standard deviations (n = 3). Inhibition percentages at 50 μM for SIRT1, 3 and 5 are given as mean without standard deviations (n = 2)
(§2) The determination of subtype selectivity against SIRT1, 3 and 5 was performed by measuring the residual enzyme activity after treatment with the corresponding inhibitor at a fixed concentration of 50 μM and subsequent calculation of the percentage inhibition.
(§3) The determination of inhibitory activity on the corresponding sirtuin enzymes was carried out based on a fluorescence-based assay commissioned by Reaction Biology Corporation (Malvern, USA) following an internal experimental protocol. Test substances were prepared in DMSO, delivered into the respective enzyme mixture (prepared with reaction buffer: Tris-HCl, pH = 8) and incubated for 10 minutes at 30 °C. Subsequently the substrate mixture (NAD^+ and a 7-amino-4-methylcoumarin-based fluorogenic peptide substrate) was added to initiate the deacetylation reaction. After 2 hours incubation at 30 °C, 2 mM nicotinamide (universal sirtuin inhibitor, to stop the reaction) and protease-based developer (to generate fluorescence by the cleavage of 7-amino-4-methylcoumarin) was added. At 30 °C 1 hour later, the respective fluorescence was measured (extinction/emission = 360 nm/460 nm). The inhibitory effect of the test compounds is indirectly proportional to the amount of converted fluorescent substrate standardized as 100% activity of the control without inhibitor. The test substances were tested in 10-dose IC50 triplicate mode, with 3-fold serial dilution starting at 50 μM final reaction concentration and if necessary, starting at 100 μM. For each serially diluted replicate of the triplicate, an IC50 value was determined by sigmoidal curve fitting, resulting in three IC50 values, from which the mean and corresponding standard deviation were subsequently calculated. Data processing was performed based on Prism 8.0.2 software (GraphPad Software, Boston, USA). Subtype selectivity on SIRT1, SIRT3 and SIRT5 was evaluated in a single dose duplicate mode at 50 μM final test compound concentration according to previous outlined internal protocol of Reaction Biology Corporation by determining the enzyme activity of the respective sirtuins in % (no inhibitor control as 100% activity).

The target in the next test is T2, SIRT2 (Homo sapiens, UniProt Q8IXJ6).
T2 sequence (Q8IXJ6 1-389): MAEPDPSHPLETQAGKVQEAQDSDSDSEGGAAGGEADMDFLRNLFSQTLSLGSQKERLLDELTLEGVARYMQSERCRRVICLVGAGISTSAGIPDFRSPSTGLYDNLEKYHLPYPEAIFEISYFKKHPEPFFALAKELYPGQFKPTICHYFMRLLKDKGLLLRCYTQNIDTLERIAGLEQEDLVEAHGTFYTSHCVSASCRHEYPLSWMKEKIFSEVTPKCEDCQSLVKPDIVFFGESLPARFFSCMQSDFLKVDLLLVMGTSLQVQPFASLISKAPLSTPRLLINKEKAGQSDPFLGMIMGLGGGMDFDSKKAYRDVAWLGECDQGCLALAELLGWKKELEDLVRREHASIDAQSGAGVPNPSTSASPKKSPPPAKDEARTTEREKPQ
Nature of the test: Fluorescence thermal shift assay of SIRT2.

Test [1] deals with T3, NanoLuc-SIRT2 fusion construct (Homo sapiens, UniProt Q8IXJ6).
T3 construct: HEK293T cells expressing the NanoLuc-tagged SIRT2(50-356) fusion protein were used; expressed in transfected cells; transient transfection for SH10
T3 sequence (Q8IXJ6 50-356): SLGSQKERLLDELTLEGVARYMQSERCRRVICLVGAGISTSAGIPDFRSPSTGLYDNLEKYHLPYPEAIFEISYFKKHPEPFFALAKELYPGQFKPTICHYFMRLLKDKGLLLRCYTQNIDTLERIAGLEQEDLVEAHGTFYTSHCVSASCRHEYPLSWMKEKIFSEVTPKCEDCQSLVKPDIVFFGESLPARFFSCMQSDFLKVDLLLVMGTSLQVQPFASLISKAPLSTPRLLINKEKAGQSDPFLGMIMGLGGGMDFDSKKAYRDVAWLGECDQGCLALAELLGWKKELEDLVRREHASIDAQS
Nature of the test: NanoBRET cellular target engagement assay in HEK293T cells. To be noted: stable HEK293T cell line expressing NanoLuc-SIRT2; 2 μM tracer; 2 hours at 37 °C; read-out: NanoBRET EC50 (cellular SIRT2 target engagement). The class given is cell-based. A general note: Bioluminescence resonance energy transfer reports proximity on the nanometre scale.
Procedure: For the assay, cells were trypsinized, resuspended in Opti-MEM® reduced serum medium, and adjusted to a concentration of 2 × 10^5 cells per mL. […] Serially diluted inhibitor and tracer were added to the cell suspension, and 100 μL were seeded into 96-well white, sterile, nonbinding surface plates. […] For BRET measurements, NanoBRET NanoGlo Substrate (Promega cat. #N1571) was added to the wells according to the manufacturer's protocol. […] The BRET ratio was calculated as the ratio of acceptor to donor signal, and data were normalized to vehicle-treated controls. Apparent intracellular binding affinities (EC50 values) were determined by fitting dose–response curves using nonlinear regression analysis in GraphPad Prism.

Another test addresses T4, human SIRT1 (Homo sapiens, UniProt Q96EB6).
T4 construct: purchased Reaction Biology Corporation (Malvern, USA), contract assay
T4 sequence (Q96EB6 1-747): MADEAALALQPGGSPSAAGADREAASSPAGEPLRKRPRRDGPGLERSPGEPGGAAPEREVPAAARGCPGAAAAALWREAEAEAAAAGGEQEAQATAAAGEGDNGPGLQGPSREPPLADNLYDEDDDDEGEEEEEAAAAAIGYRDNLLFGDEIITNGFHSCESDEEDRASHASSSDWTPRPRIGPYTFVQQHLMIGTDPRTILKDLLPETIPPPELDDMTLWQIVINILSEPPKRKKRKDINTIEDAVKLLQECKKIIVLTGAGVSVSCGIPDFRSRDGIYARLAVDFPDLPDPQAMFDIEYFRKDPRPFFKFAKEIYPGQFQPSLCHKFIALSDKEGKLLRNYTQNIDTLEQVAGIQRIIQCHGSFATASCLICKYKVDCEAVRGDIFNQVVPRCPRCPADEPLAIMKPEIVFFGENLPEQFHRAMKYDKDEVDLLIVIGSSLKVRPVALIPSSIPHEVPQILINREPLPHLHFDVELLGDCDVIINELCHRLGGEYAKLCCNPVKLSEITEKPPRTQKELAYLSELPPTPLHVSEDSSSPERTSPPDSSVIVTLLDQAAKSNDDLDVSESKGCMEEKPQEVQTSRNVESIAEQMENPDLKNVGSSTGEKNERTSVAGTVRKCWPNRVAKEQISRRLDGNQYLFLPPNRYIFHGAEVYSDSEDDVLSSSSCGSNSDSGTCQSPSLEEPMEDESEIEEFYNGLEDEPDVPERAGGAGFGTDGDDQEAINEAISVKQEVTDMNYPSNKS
In words: Fluorescence-based sirtuin subtype selectivity assay, SIRT1, single dose 50 μM. The test is classed as biochemical. Conditions: 50 μM compound; mean, n = 2. The protocol:
as §1, §2, §3

On to `Cc1cc(C)nc(SCC(=O)Nc2cccc(COc3ccc(NC(=O)c4cnn(C)c4)c(Cl)c3)c2)n1` [Compound 29, N-(2-Chloro-4-((3-(2-((4,6-dimethylpyrimidin-2-yl)thio)acetamido)benzyl)oxy)phenyl)-1-methyl-1H-pyrazole-4-carboxamide], for which the inhibition at 50 µM at human SIRT5 worked out at 7%; on human SIRT1, 12%. In addition, the “NAD+ dependency of inhibitor-induced SIRT2 melting temperature increase” value at SIRT2 (presence and absence of 2.5 mM NAD+) is “increases the melting temperature of SIRT2 independently of NAD^+”. For the same molecule, the ΔTm at 30 µM on SIRT2 (read-out: ΔT, increase in the melting temperature of SIRT2) was 6.5 °C. Further, the half-maximal effective concentration (EC50) in test [1] came to 15 nM.
